The values that follow come from US20050245510A1 (Boehringer Ingelheim Vetmedica GmbH, priority 2004, published 2005).

One data set concerns mastitis cases. The note with it: infused intramammarily in special vehicle together with amoxicillin/clavulanic acid; cited from earlier work.
The subject of data set [1] is E. coli endotoxin 026:B6 lipopolysaccharide induced mastitis in lactating cows. The data set is classed as in vivo. As for the experimental part:
A blinded in-vivo study with a parallel group design was conducted in 2003. The study was conducted according to Good Laboratory Practices.
The animals were clinically examined before endotoxin-challenge and at 2 h (before treatment), 4 h, 6 h, 8 h, 10 h, 24 h, 34 h, 48 h, 72 h, 7 days, and 14 days after endotoxin-challenge.
The size of the challenged udder quarter was documented using the following score: • 0 Normal • 1 Slight increase up to 20% • 2 20-50% increase • 3 More than 50% increase
Ruminal contractions during a 2 minutes period were examined by auscultation in the left paralumbar fossa. In painful conditions of any kind, the frequency of ruminal contractions in ruminants tends to decrease.
Milk samples for analysis of thromboxane B2 (TBX)—a relevant mediator of inflammation—were taken from the endotoxin-challenged quarter before endotoxin challenge and at 2 h (before treatment), 4 h, 6 h, 8 h, 10 h, and 24 h after endotoxin-challenge.
Milk somatic cell count (SCC) was measured before endotoxin-challenge and at 10 h, 24 h, 34 h, 48 h, 72 h, 7 days, and 14 days after challenge.

With `Cc1c(Nc2ncccc2C(=O)O)cccc1C(F)(F)F` [flunixin, flunixin meglumine], the “effect on pain perception” value in the data set on mastitis cases is on record as “no beneficial effect on pain perception”.

With `Cc1cnc(NC(=O)C2=C(O)c3ccccc3S(=O)(=O)N2C)s1` [meloxicam], in data set [1] (30 mg meloxicam per quarter, at 24 h after challenge), the “ruminal contractions in 2 min, mean ± S.D.” value was 3.4±0.55. In addition, the “size of challenged udder quarter, mean score ± S.D.” value in data set [1] (30 mg meloxicam per quarter, intramammary 2 h after challenge, at 10 h after challenge) is reported as 1.2±0.44 score (0-3). Also, in data set [1] (30 mg meloxicam, 10 h, difference in means divided by larger S.D. (untreated group)), the “standardised difference of udder size score versus untreated” value was 1.2. The “standardised difference of ruminal contractions versus untreated” value in data set [1] (30 mg meloxicam, 24 h, calculated with larger S.D. (untreated group)) was 0.9. Besides, the “local and systemic tolerance” value in data set [1] (intramammary, dose range 10-50 mg per affected udder quarter) is “good”.
